Measurements as given in patent US7470550B2, “Method of evaluating cell activity” (Toyo Advanced Technologies Co., Ltd., priority 2001, dated 2008).

Legend:
Format in all cases: cell-based
[1] = test system: Mast cells; assay: SPR measurement of reaction of mast cells on an antigen
Protocol: (§1) The method of the invention will be explained in more detail by the following examples, which are not intended to limit the scope of the invention. In the following examples, SPR-CELLIA (Japan Laser Electronic Co.) was used as an SPR analyzer. The sensor chip for amine coupling was prepared as follows.
(§2) In 10 μM solution of 4,4-dithiodibutyric acid in ethanol was immersed a sensor chip and stirred for 30 minutes. Thereafter, the chip was washed with dry ethanol and dried. Water-soluble carbodiimide (25 mg) was dissolved in 1 ml of MilliQ water, and 15mg of N-hydroxysuccinimide in 9 ml of 1,4-dioxane, respectively. Both solutions were mixed immediately before the dried sensor chip was immersed therein and the mixture stirred for 10 minutes. Then, there was added 10 ml of MilliQ water, and the mixture was stirred for 5 minutes. The chip was washed with MilliQ water and preserved in MilliQ water.
Mast cells (2×10^5 cells/ml, 70 μl) were immobilized on a sensor chip in the same manner as in Example 1. IgE was added to a measuring portion, and incubated in a CO2 incubator at 37° C. overnight. The chip was set on an SPR analyzer, and a running buffer (PIPES buffer, pH 7.2) was perfused at a flow rate of 15 μl/min at a fixed temperature of 37° C. Then, 60 μl of 100 ng/ml DNP-HSA (dinitrophenyl-human serum albumin) or 10 μg/ml DNP-lysine was injected, while a running buffer was perfused continuously, and the change of signal was measured. The composition of PIPES (piperaine-N,N′-bis[2-ethane-sulfonic acid]; 1,4-piperzine-diethanesulfonic acid) buffer is as shown in Table 1.

[2] = test system: Papilla cells; assay: SPR measurement of reaction of papilla cells (mesenchyme cells) with bFGF, with or without phosphorylation inhibitor; details: for SPR signal from 10 minutes after the injection: 37° C., 1 μg/ml bFGF alone, or bFGF + 50 μM SU4984
Protocol: as §1, §2
Papilla cells were removed from a petri dish with 0.02% EDTA and suspended in a DMEM10 culture medium. The cells (2×10^5 cells/ml, 400 μl) were immobilized on a sensor chip in the same manner as in Example 1.
PBS was perfused at a flow rate of 15 μl/min at a fixed temperature of 37° C.; 1 μg/ml of bFGF alone was injected into a control portion, and 60 μl of μg/ml bFGF+50 μM phosphorylation inhibitor (SU4984) into a measuring portion; after a lapse of 42 seconds the circuit was closed and the change of signals was measured.

[3] = test system: CTLL-2 cells; assay: SPR measurement of reaction of CTLL2 cells (suspended cells) with IL-2; details: living CTLL-2 cells immobilized on sensor chip, 37° C., PBS perfusion 15 μl/min; IL-2 62.5 ng/ml, 60 μl
Excerpt: In the method of the invention, cells are immobilized on a analyzer in the same manner as in the usual SPR measurement for vial cells, to which a stimulus as mentioned above is given to determine the signal as a change of permittivity in a conventional procedure.
as §1, §2
The suspension (30 μl)of CTLL-2 cells (2×10^5 cells/ml) in PBS were directly placed onto both of sensor chip-measuring portion and control portion, and the chip was blocked with 50 μl of 1% BSA. The sensor chip was equipped in a flow-cell unit of the SPR analyzer, of which the temperature was set at 37° C. and was perfused with PBS at a flow rate of 15 μl/min.

[4] = 10 μg/ml DNP-lysine, PIPES buffer pH 7.2, 37° C.
[5] = 60 μl of 100 ng/ml DNP-HSA, PIPES buffer pH 7.2, 37° C.

N[C@@H](CCCCNc1ccc([N+](=O)[O-])cc1[N+](=O)[O-])C(=O)O [DNP-lysine]
primary SPR signal in mast cells [1, 4]: primary signal generated by the binding of DNP-lysine was observed | secondary SPR signal in mast cells [1, 4]: no secondary signal observed

O=CN1CCN(c2ccc(/C=C3\C(=O)Nc4ccccc43)cc2)CC1 [SU4984]
SPR signal from 10 minutes after the injection [2]: became plateau | signal transduction caused by the binding of bFGF ([2]; bFGF + 50 μM SU4984): suppressed

aFGF: agent which does not bind to CTLL-2 cells
SPR signal (difference between measuring portion and control portion) [3]: no signal was observed

bFGF: growth factor injected onto papilla cells; does not bind to CTLL-2 cells
SPR signal from 10 minutes after the injection [2]: ascended continuously | SPR signal (difference between measuring portion and control portion) [3]: no signal was observed

dinitrophenyl-human serum albumin [DNP-HSA]
primary SPR signal in mast cells (FIG. 3) ([1]; 100 ng/ml DNP-HSA, IgE sensitized versus unsensitized cells): no primary signal was recorded | SPR signal in IgE sensitized mast cells [1, 5]: a strong signal was observed | SPR signal in IgE unsensitized mast cells [1, 5]: no characteristic change

B1: pleiotrophin: agent which does not bind to CTLL-2 cells (protein, UniProt P21246 33-168, looked up)
Pleiotrophin: GKKEKPEKKVKKSDCGEWQWSVCVPTSGDCGLGTREGTRTGAECKQTMKTQRCKIPCNWKKQFGAECKYQFQAWGECDLNTALKTRTGSLKRALHNAECQKTVTISKPCGKLTKPKPQAESKKKKKEGKKQEKMLD
SPR signal (difference between measuring portion and control portion) [3]: no signal was observed
